Where “and” joins values, the source holds several entries; their conditions need not be identical. Equal values may be shown once.
Columns and labels:
[1] = tested on: Ctec2; test: Ctec2 stability in ionic liquids (residual activity, T50^30); assay type: biochemical; details: for T50^30 (temperature at which enzyme activity is reduced by 50% following 30-minute pre-incubation): Ctec2 pre-incubated 38-80° C. in IL at 5-20%, substrates CMC, PNP-cellobiose, PNP-glucopyranoside, FIG. 1
Procedure: Enzyme stability was monitored by residual activity measurements. Ctec2 was diluted 200-fold into nine ionic liquid or buffer solutions at concentrations from 1-20 wt %. Each enzyme solution was then divided into 18 wells in a thin-walled PCR plate and incubated in thermal […] (Applied Biosystems, Veriti) at temperatures from 38-80° C. for 30 minutes. […] CMC reaction end-points were analyzed by DNS assay to detect reducing sugars. The end-points of the paranitrophenol reactions were measured by absorbance at 405 nm. […] Error was estimated by replication of both the incubation and activity measurement steps. Some solution conditions produced clearly bi-modal inactivation curves; in these cases the larger of the two transitions was reported. […] To capture the stability differences for several different enzyme classes in the multicomponent commercial enzyme mixture, the T50^30 was measured on three different representative substrates: carboxymethylcellulose (CMC), 4-Nitrophenyl β-D-glucopyranoside (PNP-glucopyranoside) and 4-Nitrophenyl β-D-cellobiose (PNP-cellobiose). […] In FIG. 1, data for acetate-based ionic liquids are shown in the left-hand panels: [Em][Ac] (open circle, solid line); [Ch][Ac] (closed circle, solid line); [Na][Ac], pH 5.2 at 25° C. (closed circle, dashed line). Data for glutamic acid-based ionic liquids are shown in the center panels: […] [Ch]2[Glu] (closed triangle, solid line); […] (open circle, dashed line). Data for succinic acid-based ionic liquids are shown in the right-hand panels: […] [Na][Sc], pH 5.2 at 25° C. (closed square, dashed line); […]

[2] = Switchgrass pretreatment in ionic liquid and enzymatic hydrolysis (sugar conversion); details: for biomass pretreatment effectiveness (sugar conversion): pretreatment in neat ionic liquid at 90 or 120° C., hydrolysis in 50 mM sodium succinate pH 5.2, FIG. 2A; for pretreatment efficiency on dilution of the ionic liquid: 120° C., 3 hrs, FIG. 2B
Procedure: Putnam Switchgrass (20 mesh—2 mm particle size) was used as the biomass for all experiments. Samples used to determine the pretreatment and dilution efficiency were washed free of ionic liquid with de-ionized water, and re-suspended in 50 mM sodium succinate buffer at pH 5.2. All enzyme hydrolysis reactions were performed with shaking at 50° C. and 20 mg/g 9:1 Ctec2:Htec, unless otherwise specified. Small-scale, one-pot reactions were performed in 2 ml screw-cap vials in heating blocks without mixing with 100 mg biomass at the specified ionic liquid concentration and biomass loading. Reactions were then acidified with 1 eq. of the free acid in the same vial and transferred to shaker incubators for the enzymatic hydrolysis. Larger scale one-pot reactions were performed in glass pressure tubes (Ace Glass, USA) with 2 g or 4 g biomass (Table 1). Liberated glucose and xylose were quantified with an Agilent HPLC using a Bio-Rad Aminex […] column with a 4 mM sulfuric acid mobile phase.
Data for pretreatment at 90° C. and 120° C. is shown using white bars and black bars, respectively. […] (white bars), and dilution of the ionic liquid to 25% with water.
For the data in FIG. 2C, samples were pretreated at 90° C. or 120° C., with various % IL in the liquid fraction and different wt % biomass loadings. All samples were then hydrolyzed at 25% IL concentration with 9:1 Ctec2:Htec at 20 mg/g biomass. White bars, 90° C., 16 hrs; gray bars, 120° C., 3 hrs; black bars, 120° C., 16 hrs.
In FIG. 3A and FIG. 3B, the circles represent data obtained using 10 wt % ionic liquid and the squares represent data obtained using 25 wt % ionic liquid.

[3] = ionic liquid solution
[4] = corn stover, 25 wt % ionic liquid
[5] = [Em][Ac] (20%) acidified with acetic acid to pH ~5

CC(=O)[O-].CCn1cc[n+](C)c1 [[Em][Ac], 1-ethyl-3-methylimidazolium acetate]
stability of the commercial enzyme mixture on CMC [1, 5]: slightly | stability of the commercial enzyme mixture on the para-nitrophenol substrates [1, 5]: decreased significantly

Choline succinate [[Ch][Sc]]
biomass pretreatment effectiveness (sugar conversion) [2]: poorly

Choline lysinate [[Ch][Lys], reference compound]
T50^30 (temperature at which enzyme activity is reduced by 50% following 30-minute pre-incubation) [1]: similarly low | solution pH [3]: ~14 and ~12

C[N+](C)(C)CCO.C[N+](C)(C)CCO.O=C([O-])C(=O)[O-] [[Ch]2[oxalic acid], reference compound]
Glucose conversion ([2]; ionic liquid used neat): 48% | glucose conversion above hot water pretreatment ([2]; ionic liquid used neat): ~15%

C[N+](C)(C)CCO.C[N+](C)(C)CCO.N[C@@H](CCC(=O)[O-])C(=O)[O-] [[Ch]2[Glu], (choline)2 glutamate]
glucose yield [4]: ~95% | T50^30 (temperature at which enzyme activity is reduced by 50% following 30-minute pre-incubation) [1]: lowest | CTec2 activity ([1]; at the lowest ionic liquid concentrations): very low | solution pH [3]: 10-11 | performance (glucose yield) relative to the neat ionic liquid ([2]; 25% solution, pretreatment 120° C., 16 hours, one-pot): ~90% | pretreatment efficiency on dilution of the ionic liquid [2]: consistently high pretreatment efficiency | biomass pretreatment effectiveness (sugar conversion) [2]: marked improvement

choline glutamate [[Ch][Glu]]
Glucose conversion ([2]; 10 wt % IL, 10% switchgrass, pretreatment at 120° C. with [Ch]2[Glu], one-pot hydrolysis with CTec2): 91% | Glucose conversion ([2]; 25 wt % IL, 10% switchgrass, pretreatment at 120° C. with [Ch]2[Glu], one-pot hydrolysis with CTec2): 82% | biomass pretreatment effectiveness (sugar conversion) [2]: poorly

C[N+](C)(C)CCO.C[N+](C)(C)CCO.O=C([O-])CCC(=O)[O-] [[Ch]2[Sc], (choline)2 succinate]
solution pH [3]: ~7 | pretreatment efficiency on dilution of the ionic liquid [2]: monotonic decrease in efficiency | sugar release relative to [Ch][Glu] ([2]; pretreatment at 120° C.): twice as much sugar | biomass pretreatment effectiveness (sugar conversion) [2]: marked improvement

— patent publication US11118204B2, “Switchable ionic liquids for biomass pretreatment and enzymatic hydrolysis” (National Technology & Engineering Solutions of Sandia, LLC, priority 2014, dated 2021)
